Data on 22 molecules can be found in US20240270695A1, “COMPOUNDS, COMPOSITIONS AND METHODS OF TREATING DISORDERS” (Chengdu Anticancer Bioscience LTD, priority 2021, published 2024).

Assay [1] relates to RPE-Neo or RPE-MYC or RPE-MYC expressing an EGFP-Histone 2B fusion protein. Put plainly: MTT assays of cellular proliferation. The note with it: Homo sapiens, min. effective conc., read-out: Proliferative arrest (<50%). Format: cell-based. On the technique in general: Tetrazolium dyes change colour on reduction, which living cells bring about.
For assay [2] the test system is unchanged. In words: Phenotypic screening assay (arrest in mitosis, change in DNA content, cell death; GE IN-Cell Analyzer 2000). The class given is cell-based. The note with it: Homo sapiens, compounds 20 nM to 20 μM, 24, 48 or 72 hours.
Where [3] appears, read: read-out: Min. Effective conc. for Polyploidy (≥10%).
Where [4] appears, read: min. effective conc., read-out: Cell Death (>30%).
[5] abbreviates: min. effective conc., read-out: Mitotic Arrest (≥10%).

As for `CNC(=O)C1=C(O)c2ccccc2N(c2ccc(OC)c(F)c2)C(=O)C1` [Example 95, 1-(3-fluoro-4-methoxyphenyl)-5-hydroxy-N-methyl-2-oxo-2,3-dihydro-1H-benzo[b]azepine-4-carboxamide], the minimal effective concentration lay in the range of 10 to 30 µM in assay [1], 10 to 30 µM in assay [2] (setting [3]), 10 to 30 µM in assay [2] (setting [4]) and 1 to 10 µM in assay [2] (setting [5]).
With `CNC(=O)C1=C(O)c2ccccc2N(CCc2ccc(OC)cc2)C(=O)C1` [Example 96, 5-hydroxy-1-(4-methoxyphenethyl)-N-methyl-2-oxo-2,3-dihydro-1H-benzo[b]azepine-4-carboxamide], the minimal effective concentration in assay [1], in assay [2] (setting [3]), in assay [2] (setting [4]) and in assay [2] (setting [5]) was 30 to 1000 µM throughout.
`CNC(=O)C1=C(O)c2ccccc2N(Cc2cc(C)cc(C)c2)C(=O)C1` [Example 97, 1-(3,5-dimethylbenzyl)-5-hydroxy-N-methyl-2-oxo-2,3-dihydro-1H-benzo[b]azepine-4-carboxamide]: the minimal effective concentration in assay [1], in assay [2] (setting [3]), in assay [2] (setting [4]) and in assay [2] (setting [5]) was 1 to 10 µM throughout.
Consider `CNC(=O)C1=C(O)c2ccccc2N(Cc2cccc(C)c2C)C(=O)C1` [Example 98, 1-(2,3-dimethylbenzyl)-5-hydroxy-N-methyl-2-oxo-2,3-dihydro-1H-benzo[b]azepine-4-carboxamide], for which the minimal effective concentration in assay [1] was 30 to 1000 µM; in assay [2] (setting [3]), 10 to 30 µM; in assay [2] (setting [4]), 30 to 1000 µM; in assay [2] (setting [5]), 10 to 30 µM.
For the molecule `CNC(=O)C1CC(=O)N(Cc2c(C)cccc2C)c2ccccc2C1=O` (stereo not shown) [Example 99, 1-(2,6-dimethylbenzyl)-5-hydroxy-N-methyl-2-oxo-2,3-dihydro-1H-benzo[b]azepine-4-carboxamide], the minimal effective concentration in assay [1], in assay [2] (setting [3]), in assay [2] (setting [4]) and in assay [2] (setting [5]) was 30 to 1000 µM throughout.
With `CNC(=O)C1CC(=O)N(Cc2ccc(C)c(C)c2)c2ccccc2C1=O` (stereo not shown) [Example 100, 1-(3,4-dimethylbenzyl)-5-hydroxy-N-methyl-2-oxo-2,3-dihydro-1H-benzo[b]azepine-4-carboxamide], the minimal effective concentration in assay [1], in assay [2] (setting [3]), in assay [2] (setting [4]) and in assay [2] (setting [5]) was 1 to 10 µM in each case.
Regarding `CNC(=O)C1CC(=O)N(Cc2ccc(C)cc2C)c2ccccc2C1=O` (stereo not shown) [Example 101, 1-(2,4-dimethylbenzyl)-5-hydroxy-N-methyl-2-oxo-2,3-dihydro-1H-benzo[b]azepine-4-carboxamide], the minimal effective concentration in assay [1], in assay [2] (setting [3]), in assay [2] (setting [4]) and in assay [2] (setting [5]) was 1 to 10 µM each time.
Take `CNC(=O)C1=C(O)c2ccccc2N(Cc2ccc(F)c(F)c2)C(=O)C1` [Example 102, 1-(3,4-difluorobenzyl)-5-hydroxy-N-methyl-2-oxo-2,3-dihydro-1H-benzo[b]azepine-4-carboxamide]: the minimal effective concentration in assay [1], in assay [2] (setting [3]), in assay [2] (setting [4]) and in assay [2] (setting [5]) was 30 to 1000 µM in each case.
For the molecule `CNC(=O)C1=C(O)c2ccccc2N(Cc2cc(F)cc(F)c2)C(=O)C1` [Example 104, 1-(3,5-difluorobenzyl)-5-hydroxy-N-methyl-2-oxo-2,3-dihydro-1H-benzo[b]azepine-4-carboxamide], the minimal effective concentration in assay [1], in assay [2] (setting [3]), in assay [2] (setting [4]) and in assay [2] (setting [5]) was 30 to 1000 µM throughout.
Turning to `CNC(=O)C1=C(O)c2ccccc2N(Cc2cc(F)c(F)c(F)c2)C(=O)C1` [Example 105, 5-hydroxy-N-methyl-2-oxo-1-(3,4,5-trifluorobenzyl)-2,3-dihydro-1H-benzo[b]azepine-4-carboxamide], the minimal effective concentration in assay [1], in assay [2] (setting [3]), in assay [2] (setting [4]) and in assay [2] (setting [5]) was 30 to 1000 µM each time.
For the molecule `CNC(=O)C1=C(O)c2ccccc2N(Cc2cc(F)ccc2F)C(=O)C1` [Example 106, 1-(2,5-difluorobenzyl)-5-hydroxy-N-methyl-2-oxo-2,3-dihydro-1H-benzo[b]azepine-4-carboxamide], the minimal effective concentration in assay [1], in assay [2] (setting [3]), in assay [2] (setting [4]) and in assay [2] (setting [5]) was 30 to 1000 µM each time.
For the molecule `CNC(=O)C1=C(O)c2ccccc2N(Cc2cccc(F)c2F)C(=O)C1` [Example 107, 1-(2,3-difluorobenzyl)-5-hydroxy-N-methyl-2-oxo-2,3-dihydro-1H-benzo[b]azepine-4-carboxamide], the minimal effective concentration in assay [1], in assay [2] (setting [3]), in assay [2] (setting [4]) and in assay [2] (setting [5]) was 30 to 1000 µM each time.
As to `CNC(=O)C1CC(=O)N(Cc2c(F)cccc2F)c2ccccc2C1=O` (stereo not shown) [Example 108, 1-(2,6-difluorobenzyl)-5-hydroxy-N-methyl-2-oxo-2,3-dihydro-1H-benzo[b]azepine-4-carboxamide], the minimal effective concentration in assay [1], in assay [2] (setting [3]), in assay [2] (setting [4]) and in assay [2] (setting [5]) was 30 to 1000 µM throughout.
Turning to `CNC(=O)C1=C(O)c2ccccc2N(Cc2ccc(F)c(C)c2)C(=O)C1` [Example 109, 1-(4-fluoro-3-methylbenzyl)-5-hydroxy-N-methyl-2-oxo-2,3-dihydro-1H-benzo[b]azepine-4-carboxamide], the minimal effective concentration is 30 to 1000 µM in assay [1], 10 to 30 µM in assay [2] (setting [3]), 30 to 1000 µM in assay [2] (setting [4]) and 10 to 30 µM in assay [2] (setting [5]).
`CNC(=O)C1=C(O)c2ccccc2N(Cc2ccc(OC)c(F)c2)C(=O)C1` [Example 111, 1-(3-fluoro-4-methoxybenzyl)-5-hydroxy-N-methyl-2-oxo-2,3-dihydro-1H-benzo[b]azepine-4-carboxamide]: the minimal effective concentration in assay [1], in assay [2] (setting [3]), in assay [2] (setting [4]) and in assay [2] (setting [5]) was 1 to 10 µM in each case.
Turning to `CNC(=O)C1=C(O)c2ccccc2N(Cc2ccc(F)c(OC)c2)C(=O)C1` [Example 112, 1-(4-fluoro-3-methoxybenzyl)-5-hydroxy-N-methyl-2-oxo-2,3-dihydro-1H-benzo[b]azepine-4-carboxamide], the minimal effective concentration in assay [1], in assay [2] (setting [3]), in assay [2] (setting [4]) and in assay [2] (setting [5]) was 1 to 10 µM throughout.
On to `CNC(=O)C1=C(O)c2ccccc2N(Cc2cccc(OC)c2F)C(=O)C1` [Example 113, 1-(2-fluoro-3-methoxybenzyl)-5-hydroxy-N-methyl-2-oxo-2,3-dihydro-1H-benzo[b]azepine-4-carboxamide], for which the minimal effective concentration in assay [1], in assay [2] (setting [3]), in assay [2] (setting [4]) and in assay [2] (setting [5]) was 10 to 30 µM throughout.
In the case of `CNC(=O)C1=C(O)c2ccccc2N(Cc2cc(F)ccc2OC)C(=O)C1` [Example 114, 1-(5-fluoro-2-methoxybenzyl)-5-hydroxy-N-methyl-2-oxo-2,3-dihydro-1H-benzo[b]azepine-4-carboxamide], the minimal effective concentration in assay [1], in assay [2] (setting [3]), in assay [2] (setting [4]) and in assay [2] (setting [5]) was 1 to 10 µM throughout.
As for `CNC(=O)C1=C(O)c2ccccc2N(Cc2cc(F)ccc2C)C(=O)C1` [Example 115, 1-(5-fluoro-2-methylbenzyl)-5-hydroxy-N-methyl-2-oxo-2,3-dihydro-1H-benzo[b]azepine-4-carboxamide], the minimal effective concentration in assay [1] lay within 30 to 1000 µM; in assay [2] (setting [3]), 30 to 1000 µM; in assay [2] (setting [4]), 30 to 1000 µM; in assay [2] (setting [5]) it was 10 to 30 µM.
`CNC(=O)C1=C(O)c2ccccc2N(Cc2ccc(F)c(Cl)c2)C(=O)C1` [Example 116, 1-(3-chloro-4-fluorobenzyl)-5-hydroxy-N-methyl-2-oxo-2,3-dihydro-1H-benzo[b]azepine-4-carboxamide]: the minimal effective concentration in assay [1], in assay [2] (setting [3]), in assay [2] (setting [4]) and in assay [2] (setting [5]) was 30 to 1000 µM in each case.
For the molecule `CNC(=O)C1=C(O)c2ccccc2N(Cc2ccc(F)c(C#N)c2)C(=O)C1` [Example 117, 1-(3-cyano-4-fluorobenzyl)-5-hydroxy-N-methyl-2-oxo-2,3-dihydro-1H-benzo[b]azepine-4-carboxamide], the minimal effective concentration in assay [1], in assay [2] (setting [3]), in assay [2] (setting [4]) and in assay [2] (setting [5]) was 30 to 1000 µM each time.
In the case of `CNC(=O)C1=C(O)c2ccccc2N(Cc2ccc(F)c(C(F)(F)F)c2)C(=O)C1` [Example 118, 1-(4-fluoro-3-(trifluoromethyl)benzyl)-5-hydroxy-N-methyl-2-oxo-2,3-dihydro-1H-benzo[b]azepine-4-carboxamide], the minimal effective concentration in assay [1], in assay [2] (setting [3]), in assay [2] (setting [4]) and in assay [2] (setting [5]) was 30 to 1000 µM each time.
